Laboratory results from patent US20170157260A1, “Glycosylated Polypeptide and Drug Composition Containing said Polypeptide” (Glytech, Inc., priority 2011, published 2017).

Experiments:
[1] = test system: growth hormone (GH) production; assay: GH production suppression test with rats; format: in vivo; conditions: Table 7 (Example 86), subcutaneous, 1 hour before GRF, plasma GH 5 minutes after GRF, vehicle 861
Protocol: This experimental line was carried out as a test line that can evaluate the pharmacological action of the glycosylated form on SSTR and its residence in blood after administration, with blood GH production amount as an indicator.
Moreover, GRF (GH releasing hormone, Growth hormone releasing factor) was used as the GH release enhancer. […] As heparin employed as the anticoagulant when collecting blood, Japanese Pharmacopeia heparin sodium injectable solution (Lot. B084, from Mochida Pharmaceutical Co., Ltd.) was used directly as stock solution.
As the control group, saline without glycosylated polypeptide was similarly administered (vehicle group). […] One hour after administration of the glycosylated form, i.e. after 50 minutes or more had passed under anesthesia, GRF was administered as the GH release enhancer to the tail vain at a dosage of 1 mL/kg with a glass syringe and an injection needle. Five minutes after administration of GRF, blood was collected from the rat cervical vein with a glass syringe containing heparin and an injection needle. 0.4 mL of the collected blood was left on ice for 20 minutes or more, then centrifuged (1,870×g, 4° C., 10 minutes), and 100 μL of the supernatant was taken as the plasma sample. As blank plasma, plasma obtained by similarly treating the blood collected from untreated rat cervical vein was employed. Plasma samples were frozen in storage until employed for measurement.
The plasma sample was diluted with the assay buffer supplied in the EIA kit to 20, 100, and 500-folds as measurement samples. […] By multiplying the results obtained and the dilution ratio, the GH concentration was calculated.

[2] = test system: rat gastrointestinal obstruction model; assay: Gastrointestinal obstruction model: intestinal fluid weight; format: in vivo, rats; conditions: Table 9; jejunum, 1 hour after subcutaneous administration of 40 μM solution at 1 mL/kg, 18 hours after ligation
Protocol: (§1) This experimental line was carried out as a test line to evaluate the promotion of intestinal fluid absorption or the secretory suppressing action, using the change in the intestinal fluid weight in the jejunum after bowel obstruction as an indicator. Moreover, blood parameters of deviation enzymes amylase (pancreas), lactate dehydrogenase (LDH, liver), and creatine phosphokinase (CPK, skeletal muscle, cardiac muscle etc.) were measured as indicators of tissue disorders.
Anesthesia was introduced with inhalation of 2% isoflurane and laughing gas:oxygen=7:3, and this was maintained throughout the surgery. A median incision was made in the abdomen, and the jejunum at about 10 cm from the musculus suspensorius duodeni was ligated with a surgical suture. Then, the incision site was promptly sutured, and the rats were fasted until compound administration. […]
One hour after compound administration, a median incision was made in the abdomen under inhalation anesthesia, and 1.5 mL of blood was collected from the abdominal vena cava. […] The fluid and blood on the jejunum surface were removed with a paper towel, nerves, blood vessels, and fat attached to the jejunum was removed, this was cut into 6 cm lengths, and wet weight was measured. This was then dried at 36 degrees for 24 hours, and dry weight was measured.

[3] = test system: rat gastrointestinal obstruction model; assay: Gastrointestinal obstruction model: blood parameters (amylase, LDH, CPK); conditions: Table 10; blood 1 hour after subcutaneous administration
Protocol: as §1
Anesthesia was introduced with inhalation of 2% isoflurane and laughing gas:oxygen=7:3, and this was maintained throughout the surgery. A median incision was made in the abdomen, and the jejunum at about 10 cm from the musculus suspensorius duodeni was ligated with a surgical suture. Then, the incision site was promptly sutured, and the rats were fasted until compound administration. In the sham treatment group, ligation of the jejunum was not performed, but the treatment of suturing the incision site after a median incision was made in the abdomen was performed.
Eighteen hours after the gastrointestinal obstruction surgery, this was subcutaneously administered into the dorsal cervix at a dosage of 1 mL/kg with a glass syringe and a 25 G injection needle (all from Terumo Corporation). As the vehicle group, saline without glycosylated polypeptide was similarly administered.
One hour after compound administration, a median incision was made in the abdomen under inhalation anesthesia, and 1.5 mL of blood was collected from the abdominal vena cava. Then, the ligated jejunum on the musculus suspensorius duodeni side was resected. The fluid and blood on the jejunum surface were removed with a paper towel, nerves, blood vessels, and fat attached to the jejunum was removed, this was cut into 6 cm lengths, and wet weight was measured. This was then dried at 36 degrees for 24 hours, and dry weight was measured.
The measuring methods employed were BG5B, UV-rate, and JSCC methods, respectively.

Compound | GH ([1]; dose 10 nmol/kg) | GH ([1]; dose 100 nmol/kg) | Intestinal fluid weight [2] | amylase activity compared to the vehicle (in words) [3] | further results
29C(disialo)-SRIF28 [Example 13] | 497 ng/mL | 88.5 ng/mL |  |  | 
C[C@@H](O)[C@@H]1NC(=O)[C@H](CCCCN)NC(=O)[C@@H](Cc2c[nH]c3ccccc23)NC(=O)[C@H](Cc2ccccc2)NC(=O)[C@@H](NC(=O)[C@H](N)Cc2ccccc2)CSSC[C@@H](C(=O)N[C@H](CO)[C@@H](C)O)NC1=O [Octreotide, reference compound] |  |  | 693 ± 48 mg |  | 
C(disialo)-R-K-SRIF14 [Example 18] |  |  |  | low value compared to the vehicle | LDH activity compared to the vehicle (in words) [3]: low value compared to the vehicle
N19C(disialo)-SRIF28 [Example 10] | 563 ng/mL | 1.5 ng/mL |  |  | 
S1-2C(asialo)-SRIF28 [Example 28] |  |  | 566 ± 34 mg |  | 
S1C(disialo)-SRIF28 [Example 1] |  |  |  | low value compared to the vehicle | 
